Laboratory results as given in ChEMBL document CHEMBL2448809, “UCSF DeRisi Lab MMV Box Apicoplast Screening”.

tested on: Plasmodium falciparum; experiment: MMV: Compounds (1uM) were screened in a 72hr growth assay monitored by flow cytometry both in the presence and absence of supplemental isopentenyl pyrophosphate (IPP) 200uM. Compounds which fail to show anti-malarial activity when chemically rescued by IPP are therefore specific to the apicoplast. The values are expressed as the ratio of the corresponding activity with and without IPP, respectively.; assay type: functional, W2

Structure (SMILES) | Ratio
Cc1ccc(-c2cc(C(=O)Nc3ccc(S(=O)(=O)N4CCCCC4)cc3)[nH]n2)c(O)c1 | 0.875
COc1cccc(Nc2nc(NCCO)c3ccccc3n2)c1.Cl | 0.7297
Cc1cc(C)cc(Nc2cc(C)nc3nc(C(F)(F)F)nn23)c1 | 0.8519
CCc1c(C)c(=N)c2ccccc2n1C.I | 1.064
Cc1cc(N2CCN(C3CCCC3)CC2)n2c(nc3ccccc32)c1C#N | 0.7364
COc1ccc(CCNC(=O)c2cc(S(=O)(=O)N3CC(C)CC(C)C3)ccc2Sc2ccc(F)cc2)cc1OC (stereo unspecified) | 1.061
O=C1c2ccccc2C2=Nc3ccccc3SC(c3cccc(F)c3)C12 (stereo unspecified) | 0.8676
CC(C)CCNCC(O)Cn1c2ccccc2c2ccccc21.Cl (stereo unspecified) | 0.9245
Cc1cc(NC(=O)c2ccc(-c3ccccc3)cc2)no1 | 0.9841
O=C(NCc1ccco1)C1CCN(S(=O)(=O)c2ccc(Cl)cc2)CC1 | 0.8889
CCOc1cc2c(cc1OCC)C(c1cc(OC)c(O)cc1Cl)NCC2 (stereo unspecified) | 0.9254
CN1C=C(c2ccc3ccccc3n2)C(c2c[nH]c3ccccc23)c2ccccc21 (stereo unspecified) | 1.295
CCCOCc1cc(CN2CCN(c3cccc(Cl)c3)CC2)c(O)c2ncccc12 | 0.9844
CC(C)c1ccc(CNCC(O)c2ccccc2)cc1.Cl (stereo unspecified) | 0.9296
OC1CCCCC1C1(NC(=S)Nc2ccccc2)CCCCC1 (stereo unspecified) | 0.9298
CC1CC(C)CN(C(=O)c2ccc(Cl)cc2Cl)C1 (stereo unspecified) | 0.6364
COc1cccc(Cn2c(Oc3ccccc3)nc3c2c(=O)n(C)c(=O)n3C)c1 | 0.9255
CCCc1c(CC)c(=N)c2ccccc2n1C | 1.043
OC(CNCC1CCCO1)Cn1c2ccc(Cl)cc2c2cc(Cl)ccc21 (stereo unspecified) | 0.8732
Cc1ccc2c(C)nc(Nc3nc(C)cc(-c4ccccc4)n3)nc2c1 | 0.8649
CCCCCCC(O)(c1ccc(F)cc1)C(CN1CCOCC1)c1ccccc1.Cl (stereo unspecified) | 0.9077
Nc1ccc(-c2nc3cc(Oc4ccc(Oc5ccc6[nH]c(-c7ccc(N)cc7)nc6c5)cc4)ccc3[nH]2)cc1 | 1.143

Structure (SMILES) | Ratio
COc1ccc(NC(=O)C2c3ccccc3C(=O)N(CC(C)C)C2c2cccs2)cc1Cl (stereo unspecified) | 0.9242
COc1ccc2c(=O)cc(C(Cl)(Cl)Cl)oc2c1 | 0.7571
CCN(Cc1ccccc1)C1CCN(Cc2cc(Br)ccc2O)CC1.O=C(O)C(=O)O | 0.9701
O=C(CCl)NCCOc1ccc(Cl)cc1Cl | 1.041
CCC(=O)Nc1nnc(Cc2ccc(OC)c(OC)c2)s1 | 0.7213
CN(N=O)C1=C(NC2CCCCC2)C(=O)c2ccccc2C1=O | 1.071
Cc1ccc2cc3c(N)c4c(C)ccc(C)c4nc3nc2c1 | 1.095
Cc1cc(Nc2ccc(Cl)cc2)n2nc(C(F)(F)F)nc2n1 | 0.9718
CC(C)CNC(=O)c1c(N)n(CCc2ccccc2F)c2nc3ccccc3nc12 | 0.63
Cc1cc(N(C)C)nc(Nc2ccc(NC(=O)Nc3ccccc3)cc2)n1 | 1.017
c1ccc(CNc2nc(Nc3ccccc3)nc3ccccc23)cc1 | 1
CCCCc1c(CCC)c(=N)c2ccccc2n1C.I | 0.7821
Cc1cc(Nc2ccc(OCc3ccccc3)cc2)nc2cc(O)ccc12 | 0.8026
O=C(Nc1ccc(Br)cc1)Nc1cccc(Cl)c1 | 1.104
Cc1cccc(N2C(=O)C3C(C2=O)C2(c4ccccc4)C(=O)C3(c3ccccc3)C(c3ccc4c(c3)OCO4)=C2c2ccc3c(c2)OCO3)c1 (stereo unspecified) | 0.9857
COc1cc(C(=O)Nc2nc3c(cc4c5c(cccc53)CC4)s2)cc(OC)c1OC | 0.8259
CCOc1ccccc1NC(=O)CN1CCN(C(=O)c2ccco2)CC1 | 0.906
N=c1c2ccccc2nnn1-c1cccc(C(F)(F)F)c1 | 1.0625
CCOc1ccc(Nc2ccnc3cc(Cl)ccc23)cc1 | 0.8831
Oc1ccc(Br)cc1CN1CCN(Cc2ccc(Cl)cc2)CC1 | 0.9138
COc1ccc(C2=C(c3ccc(OC)cc3)C3(c4ccccc4)C(=O)C2(c2ccccc2)C2C(=O)N(c4ccc(C)cc4)C(=O)C23)cc1 (stereo unspecified) | 1.0625
O=C(NC1CCCC1)c1ccc(N2CCC(NCc3cccc(C(F)(F)F)c3)CC2)cc1 | 0.8

Structure (SMILES) | Ratio
COc1ccc(Nc2nc(NCc3ccccc3)c3ccccc3n2)cc1 | 1.093
Cc1sc(NC(=O)c2ccco2)c(C(c2cccnc2)N2CCC(Cc3ccccc3)CC2)c1C (stereo unspecified) | 1.123
CCOC(=O)c1cnc2ccc(OC)cc2c1NCc1ccccc1 | 0.7154
CCOC(=O)c1c(NC(=O)c2ccccc2)sc2c(O)c(CN(CC)CC)ccc12 | 0.8592
Cc1cc(NC(=O)C2c3ccccc3C(=O)N(CC(C)C)C2c2cccs2)no1 (stereo unspecified) | 0.791
CCOC(=O)c1cnc2c(C)cc(C)cc2c1Nc1ccc(OC)c(OC)c1 | 1.122
COc1ccc(Nc2nc(N/N=C/c3ccc(O)cc3)nc(Nc3ccc([N+](=O)[O-])cc3)n2)cc1 | 1.812
CN1CCN(c2ccc(Nc3c4ccccc4nc4ccccc34)cc2)CC1 | 0.8
COc1ccc(NC(=O)C2c3ccccc3C(=O)N(CC(C)C)C2c2cccs2)cc1 (stereo unspecified) | 1.197
Cc1ccc(Cl)cc1N1CCN(CCCNC(=O)C2CCN(c3nc4ccccc4[nH]3)CC2)CC1 | 0.814
CCN(CC)CCNc1ncnc2c1[nH]c1ccc(Br)cc12 | 0.9508
COc1ccc(-c2nonc2NC(=O)c2cccc(Cl)c2)cc1OC | 0.9
COc1cccc(NC(=O)Cn2c(C)c(C#N)c3ccccc32)c1 | 1.098
OC(CNC1CCCC1)Cn1c2ccccc2c2ccccc21 (stereo unspecified) | 1.151
OC1=C2C(=Nc3ccccc3SC2c2ccc(Br)cc2)c2ccccc21 (stereo unspecified) | 1.068
COc1cccc(Nc2nc(N)c3ccccc3n2)c1.Cl | 0.9815
CC(C)(C)CC(C)(C)NCC(O)COc1ccc2c(c1)CCC2.Cl (stereo unspecified) | 1.052
COC(=O)c1ccc(Cl)c2c1C1C=CCC1C(c1cccc3ccccc13)N2 (stereo unspecified) | 1.081
Cc1c(C)n(Cc2ccc(F)cc2)c2ccc(C(=O)NCc3ccco3)cc12 | 1.212
COc1ccc(N2CCN(C(CNC(=O)CC(C)(C)C)c3ccc4c(c3)OCO4)CC2)cc1 (stereo unspecified) | 0.8841
Cc1ccc(Nc2nc(N)c3ccccc3n2)cc1Cl | 0.9206
O=C(Nc1cccc(C2=NCCN2)c1)Nc1cccc(C2=NCCN2)c1 [IMIDOCARB] | 1

Structure (SMILES) | Ratio
COc1cc2cc(C(=O)Nc3ccccc3)c(N)nc2cc1OC | 1.031
Cc1ccc(Cn2c(N3CCC(C(=O)NCc4cccs4)CC3)nc3ccccc32)cc1 | 1.032
CCCN(CCC)CC(O)COc1ccccc1C(=O)Nc1ccccc1 (stereo unspecified) | 0.8553
COc1ccc(C)c2sc(N(Cc3cccnc3)C(=O)c3ccc(C#N)cc3)nc12 | 0.971
O=C(NC1CCN(Cc2ccccc2)CC1)c1cc(C(=O)NC2CCN(Cc3ccccc3)CC2)cc(C(=O)NC2CCN(Cc3ccccc3)CC2)c1 | 1.119
CCCc1c(C)nc2ccc(Br)cc2c1O | 1
COc1ccccc1C(=O)ON=C(N)Cc1cccc2ccccc12 | 1.06
O=C(NCCCN1CCC(N2CCCCC2)CC1)C1=Cc2cc(Br)ccc2OC1 | 0.8966
COc1cc(C(=O)Nc2ccc(-c3nc4ccccc4[nH]3)cc2)cc(OC)c1OC | 0.6522
CCOc1ccc(/C=C/c2nc(=O)c3ccccc3o2)cc1 | 0.7714
COCCNCC(O)Cn1c2ccc(Cl)cc2c2cc(Cl)ccc21 (stereo unspecified) | 0.88
CCN(CC)c1cc(C)c2cc(NC(=O)c3cccc(OC)c3)ccc2n1 | 1.095
CC(C)(C)c1ccc(C(=O)Nc2c3c(nn2-c2cccc(Cl)c2)CSC3)cc1 | 0.9138
COc1ccc(-c2nonc2NC(=O)c2cccc(C)c2)cc1OC | 1.066
Cc1ccccc1OCCSc1nc2ccc(NC(=O)c3cccs3)cc2s1 | 0.9467
O=C(Nc1ccc(N2CCN(Cc3ccccc3)CC2)cc1)c1cccs1.O=C(O)C(F)(F)F | 0.8148
OC1=C2C(=Nc3ccccc3SC2c2ccccc2)c2ccccc21 (stereo unspecified) | 1.213
Clc1ccc2[nH]c3c(NCCCN4CCOCC4)ncnc3c2c1 | 0.9836
O=C(CCc1ccco1)NC1CCN(CC2(c3ccc(Cl)cc3)CCC2)CC1 | 0.875
CCOc1c(Br)cc(C2C(C(=O)OC)=CN(C)C=C2C(=O)OC)cc1OC | 1.02
Cc1cc(Nc2cccc(F)c2)nc(NCc2ccccc2)n1 | 0.8333
O=[N+]([O-])c1ccc(C=NNc2nc3ccccc3[nH]2)cc1 | 1.132

Structure (SMILES) | Ratio
Cc1ccc(C(=O)c2oc3ccc4c(C)cc(=O)oc4c3c2C)cc1 | 1.018
N=c1n(CCN2CCCCC2)c2ccccc2n1CC(=O)c1ccc(Cl)c(Cl)c1 | 1.14
O=C(Nc1ccc(Cl)c(Cl)c1)Nc1ccc(Cl)c(Cl)c1 | 1.022
CCOc1ccc(CN2CCN(CC(O)COc3ccc(OCC(O)CN4CCN(Cc5ccc(OCC)cc5)CC4)cc3)CC2)cc1 (stereo unspecified) | 0.9863
CCCCC(O)(c1ccc(Cl)cc1)C(CN1CCOCC1)c1ccc(Cl)cc1.Cl (stereo unspecified) | 1.074
CCOc1ccccc1CN1CCc2nc3cc(C(C)(C)C)nn3c(O)c2C1 | 0.8444
O=C(NCc1ccco1)C1CCN(S(=O)(=O)c2ccc(Br)cc2)CC1 | 0.7733
COc1ccc(C(=O)Nc2ccc3nc(N4CCCCC4)cc(C)c3c2)cc1OC | 0.7897
CCCN(CCC)CCCNC(=O)c1cc2c(-c3ccc(OC)c(OC)c3)nn(C)c2s1 | 1.186
c1ccc(Cn2c(N=Nc3c(Nc4ccccc4)ccc4ccccc34)nc3ccccc32)cc1 | 0.863
COc1ccc(CNC(=O)c2cc3c(=O)n4ccccc4nc3n(CCc3ccccc3)c2=N)cc1 | 0.8046
CCc1ccc(CNCC(O)c2ccccc2)cc1.Cl (stereo unspecified) | 1.061
COc1cccc(C=Cc2nc(=O)c3ccccc3o2)c1OC | 0.4632
CCOC(=O)c1cnc2ccc(OC)cc2c1Nc1ccc(N2CCN(C)CC2)cc1 | 0.9667
Oc1c(C(Nc2ccccn2)c2cccc(Oc3ccccc3)c2)ccc2cccnc12 (stereo unspecified) | 0.7317
Cc1ccc2nc(C)cc(Nc3cccc(C(F)(F)F)c3)c2c1.Cl | 0.875
c1ccc2c(NCCc3c[nH]c4ccccc34)c3ccccc3nc2c1 | 1.057
CCOC(=O)c1cnc2ccc(CC)cc2c1O | 1
